Source: EP1733731A1, “New uses of Glycerol derivatives in particular in cosmetics” (AGRO INDUSTRIE RECHERCHES ET DEVELOPPEMENTS (A.R.D.), priority 2005, dated 2006)

Columns and labels:
plasmine humaine = target: T1, plasmine humaine (Homo sapiens, UniProt P00747); assay: activation of proMMP-3 by plasmin in vitro (western blot); format: biochemical; conditions: 25 µg/mL; 65 nM plasmin, 100 nM proMMP-3; Figure 1A-4
T1 construct: connus pour interagir avec la plasmine via son domaine kringle V; testé in vitro sur l'activité amidolytique de la plasmine à l'aide d'un substrat synthétique (S-2251, Chromogénix)
Method: • La Figure 1 représente la modulation de l'activation des proMMP-3 (Figures 1A et 1B) et proMMP-1 (Figure 1C) in vitro comme en culture par des extraits glycolipidiques du gluten de blé. • Figure 1A : 100 nM de proMMP-3 (Figure 1A-1) sont incubés avec 65 nM de plasmine en absence (Figure 1A-2) ou en présence de glycolipides (Figure 1A-3 et 4), à la concentration de 50µg/mL pour M1-Sucres (Figure 1A-3) et 25 µg/mL pour ED 23-11 (Figure 1A-4). • Figure 1B : des fibroblastes dermiques sont ensemencés en plaque 24 puits à raison de […] cellules par puits jusque confluence. Après une mise au repos de 18 heures, les cellules sont incubées en présence (Figure 1B-2, 3 et 4) ou non (Figure 1B-1) de 2,5 µg/mL de plasmine ainsi que des glycolipides M1(-Sucres) (Figure 1B-3) et ED 23-11 (Figure 1B-4) aux mêmes concentrations que précédemment. • Figure 1C : des fibroblastes dermiques sont ensemencés en plaque 24 puits à raison de […] cellules par puits jusque confluence. Après une mise au repos de 18 heures, les cellules sont incubées en présence (Figure 1C-2, 3 et 4) ou non (Figure 1C-1) de 2,5 µg/mL de plasmine ainsi que des glycolipides M1(-Sucres) (Figure 1C-3) et ED 23-11 (Figure 1C-4) aux mêmes concentrations que précédemment. Dans l'ensemble des figures 1A, 1B et 1C, la réaction est arrêtée aux temps indiqués par addition de 0,3 mg/ml d'aprotinine. […]

[1] = test system: kératinocytes et fibroblastes dermiques; assay: degradation of a fluorescein-labelled type I collagen layer in a UV-A skin photo-ageing co-culture model; format: cell-based; conditions: 10 J.cm^-2 UV-A, 15 µg/mL plasminogen, 48 h, versus control without active, read-out: inhibition de ce "vieillissement cutané" (dégradation du tapis de collagène)

T1 sequence (P00747 97-580 limits assumed): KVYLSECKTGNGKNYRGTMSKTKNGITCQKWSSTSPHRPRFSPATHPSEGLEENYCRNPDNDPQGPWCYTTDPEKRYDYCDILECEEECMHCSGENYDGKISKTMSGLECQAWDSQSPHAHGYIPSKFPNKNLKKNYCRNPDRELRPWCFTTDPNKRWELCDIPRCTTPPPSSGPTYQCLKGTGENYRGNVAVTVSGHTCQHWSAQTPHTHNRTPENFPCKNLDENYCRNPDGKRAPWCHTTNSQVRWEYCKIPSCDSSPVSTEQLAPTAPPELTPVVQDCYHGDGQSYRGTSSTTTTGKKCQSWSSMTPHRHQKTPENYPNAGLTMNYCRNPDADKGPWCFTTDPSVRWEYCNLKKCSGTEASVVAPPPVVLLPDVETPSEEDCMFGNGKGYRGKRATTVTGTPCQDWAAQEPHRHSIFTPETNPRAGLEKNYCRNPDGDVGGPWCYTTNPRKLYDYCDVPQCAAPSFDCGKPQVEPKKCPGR
T1 sequence (P00747 581-810 limits assumed): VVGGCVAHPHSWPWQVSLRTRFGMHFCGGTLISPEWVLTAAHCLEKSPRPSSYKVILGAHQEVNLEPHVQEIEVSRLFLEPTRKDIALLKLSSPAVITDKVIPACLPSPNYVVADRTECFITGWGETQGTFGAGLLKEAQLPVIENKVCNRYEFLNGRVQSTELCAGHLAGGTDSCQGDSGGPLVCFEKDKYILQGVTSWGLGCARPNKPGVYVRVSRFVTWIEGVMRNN

activation de la proMMP-3 par la plasmine (plasmine humaine): inhibition
SMILES: CCCCC/C=C\C/C=C\CCCCCCCCOC[C@H](CO[C@@H]1O[C@H](COC(=O)CCCCCCCCCCCCCCC)[C@H](O)[C@H](O)[C@H]1O)OCCCCCCCC/C=C\C/C=C\CCCCC [ED23-11, 1,2-di-O-linoléyl-3-O-[6'-O-palmitoyl-β-D-galactopyranosyl]-sn-glycérol]
inhibition at 25 µg/mL [1]: 70%
